Experimental data taken from ChEMBL document CHEMBL5058649, “Data for DCP probe BAY 1816032” (2022).

Columns and labels:
[1] = target: Histamine H2 receptor (Homo sapiens) (UniProt P25021); details: Compound concentration 10.0 uM
[2] = target: 5-hydroxytryptamine receptor 1A (Homo sapiens) (UniProt P08908); test: Serotonin (5-Hydroxytryptamine) 5-HT1A Eurofins-Panlabs radioligand binding assay; details: Compound concentration 10.0 uM
[3] = target: Protein kinase C iota type (Homo sapiens) (UniProt P41743); test: PRKCI DiscoveRx kinase panel; details: Compound concentration 1.0 uM
Protein kinase C iota type (Homo sapiens), sequence (P41743 whole entry): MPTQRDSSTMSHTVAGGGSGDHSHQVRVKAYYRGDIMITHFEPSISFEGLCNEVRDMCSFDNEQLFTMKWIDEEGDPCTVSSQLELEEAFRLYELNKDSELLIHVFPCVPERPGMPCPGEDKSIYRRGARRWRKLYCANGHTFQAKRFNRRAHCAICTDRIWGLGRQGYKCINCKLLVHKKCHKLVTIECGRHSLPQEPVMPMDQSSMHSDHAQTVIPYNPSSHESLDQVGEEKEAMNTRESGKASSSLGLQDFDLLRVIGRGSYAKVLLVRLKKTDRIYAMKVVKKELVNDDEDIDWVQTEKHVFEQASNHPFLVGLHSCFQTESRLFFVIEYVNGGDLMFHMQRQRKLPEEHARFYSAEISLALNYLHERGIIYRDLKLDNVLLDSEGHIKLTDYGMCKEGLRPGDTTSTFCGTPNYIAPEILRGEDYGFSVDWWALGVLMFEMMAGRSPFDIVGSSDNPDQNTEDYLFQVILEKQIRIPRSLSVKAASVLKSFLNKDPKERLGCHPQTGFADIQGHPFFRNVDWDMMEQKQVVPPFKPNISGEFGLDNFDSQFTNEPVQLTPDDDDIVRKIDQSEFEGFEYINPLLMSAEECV

[4] = target: Myosin-IIIa (Homo sapiens) (UniProt Q8NEV4); test: MYO3A DiscoveRx kinase panel; details: Compound concentration 1.0 uM
Myosin-IIIa (Homo sapiens), sequence (Q8NEV4 whole entry): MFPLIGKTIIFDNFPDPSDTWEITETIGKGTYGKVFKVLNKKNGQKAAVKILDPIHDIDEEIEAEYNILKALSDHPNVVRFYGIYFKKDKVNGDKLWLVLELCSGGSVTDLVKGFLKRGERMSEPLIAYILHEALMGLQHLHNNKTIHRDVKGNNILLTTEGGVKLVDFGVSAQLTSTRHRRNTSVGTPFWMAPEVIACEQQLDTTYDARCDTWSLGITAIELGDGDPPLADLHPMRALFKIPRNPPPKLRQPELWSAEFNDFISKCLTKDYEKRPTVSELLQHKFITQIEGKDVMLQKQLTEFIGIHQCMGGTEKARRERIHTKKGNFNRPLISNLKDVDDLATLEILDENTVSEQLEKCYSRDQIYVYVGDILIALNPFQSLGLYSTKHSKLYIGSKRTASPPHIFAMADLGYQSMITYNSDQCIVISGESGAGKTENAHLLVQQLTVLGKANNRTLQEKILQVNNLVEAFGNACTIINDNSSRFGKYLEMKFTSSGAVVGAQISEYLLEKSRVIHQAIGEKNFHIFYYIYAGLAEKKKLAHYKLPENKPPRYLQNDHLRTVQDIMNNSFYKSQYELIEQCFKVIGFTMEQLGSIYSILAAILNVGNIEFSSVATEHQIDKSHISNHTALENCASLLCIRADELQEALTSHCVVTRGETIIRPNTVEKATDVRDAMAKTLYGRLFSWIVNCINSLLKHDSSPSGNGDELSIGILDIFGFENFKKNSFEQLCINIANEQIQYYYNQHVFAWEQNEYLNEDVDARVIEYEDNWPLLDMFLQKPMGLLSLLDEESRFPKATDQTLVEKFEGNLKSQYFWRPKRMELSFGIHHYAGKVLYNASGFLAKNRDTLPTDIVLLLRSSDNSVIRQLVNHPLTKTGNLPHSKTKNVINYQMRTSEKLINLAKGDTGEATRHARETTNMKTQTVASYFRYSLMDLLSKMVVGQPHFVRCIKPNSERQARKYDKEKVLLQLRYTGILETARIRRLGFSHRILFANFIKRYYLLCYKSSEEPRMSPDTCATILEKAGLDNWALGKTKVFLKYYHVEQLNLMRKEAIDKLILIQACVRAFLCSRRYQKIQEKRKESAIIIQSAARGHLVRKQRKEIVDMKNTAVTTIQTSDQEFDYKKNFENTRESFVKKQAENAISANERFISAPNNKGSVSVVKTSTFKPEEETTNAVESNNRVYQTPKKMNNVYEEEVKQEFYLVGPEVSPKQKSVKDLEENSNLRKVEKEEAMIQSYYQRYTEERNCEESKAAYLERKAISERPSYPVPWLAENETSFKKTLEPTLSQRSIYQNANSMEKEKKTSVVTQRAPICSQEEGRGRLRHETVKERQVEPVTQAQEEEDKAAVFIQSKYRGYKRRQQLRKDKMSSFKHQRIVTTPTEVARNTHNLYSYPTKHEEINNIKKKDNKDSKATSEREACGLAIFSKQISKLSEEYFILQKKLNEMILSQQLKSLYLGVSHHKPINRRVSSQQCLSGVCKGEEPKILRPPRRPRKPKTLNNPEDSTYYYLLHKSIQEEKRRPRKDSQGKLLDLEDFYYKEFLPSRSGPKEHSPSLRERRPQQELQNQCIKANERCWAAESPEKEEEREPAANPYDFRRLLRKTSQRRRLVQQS

[5] = target: Histamine H4 receptor (Homo sapiens) (UniProt Q9H3N8); details: Compound concentration 10.0 uM
Histamine H4 receptor (Homo sapiens), sequence (Q9H3N8 whole entry): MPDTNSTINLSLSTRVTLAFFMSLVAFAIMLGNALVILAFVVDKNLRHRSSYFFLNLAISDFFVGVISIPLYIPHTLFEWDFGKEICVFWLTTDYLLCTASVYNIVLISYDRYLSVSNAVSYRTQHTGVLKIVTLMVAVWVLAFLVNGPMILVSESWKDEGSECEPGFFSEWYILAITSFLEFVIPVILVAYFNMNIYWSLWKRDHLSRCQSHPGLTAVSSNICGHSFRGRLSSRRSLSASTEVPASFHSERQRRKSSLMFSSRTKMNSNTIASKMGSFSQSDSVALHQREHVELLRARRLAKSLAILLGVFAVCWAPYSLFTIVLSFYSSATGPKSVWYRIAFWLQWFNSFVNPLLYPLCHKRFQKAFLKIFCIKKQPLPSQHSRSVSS

5-hydroxytryptamine receptor 1A (Homo sapiens), sequence (P08908 whole entry): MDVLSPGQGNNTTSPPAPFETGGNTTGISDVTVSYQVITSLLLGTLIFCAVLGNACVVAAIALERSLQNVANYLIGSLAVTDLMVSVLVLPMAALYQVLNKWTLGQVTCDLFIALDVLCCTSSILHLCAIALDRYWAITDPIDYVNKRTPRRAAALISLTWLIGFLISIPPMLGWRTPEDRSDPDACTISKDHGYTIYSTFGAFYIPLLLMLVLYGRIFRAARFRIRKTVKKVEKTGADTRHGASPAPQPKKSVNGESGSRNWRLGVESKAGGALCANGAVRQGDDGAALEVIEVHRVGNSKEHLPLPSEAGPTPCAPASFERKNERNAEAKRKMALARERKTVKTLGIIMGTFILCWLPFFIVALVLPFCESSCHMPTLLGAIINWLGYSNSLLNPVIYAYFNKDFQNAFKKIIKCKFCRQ
Histamine H2 receptor (Homo sapiens), sequence (P25021 whole entry): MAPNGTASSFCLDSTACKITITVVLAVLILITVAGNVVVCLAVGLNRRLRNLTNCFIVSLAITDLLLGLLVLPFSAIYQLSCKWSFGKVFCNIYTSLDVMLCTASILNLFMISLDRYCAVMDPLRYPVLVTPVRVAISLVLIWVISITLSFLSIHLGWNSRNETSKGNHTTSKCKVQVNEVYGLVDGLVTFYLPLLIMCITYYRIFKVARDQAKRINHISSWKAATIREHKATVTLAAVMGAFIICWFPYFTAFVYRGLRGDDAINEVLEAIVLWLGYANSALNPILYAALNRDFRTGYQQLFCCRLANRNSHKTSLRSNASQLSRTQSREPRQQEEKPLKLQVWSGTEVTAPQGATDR

COc1cnccc1Nc1nc(-c2nn(Cc3c(F)cc(OCCO)cc3F)c3ccccc23)ncc1OC
inhibition [1]: 9.79%
inhibition [2]: 0%
residual activity [3]: 87%
residual activity [4]: 100%
inhibition [5]: 39.3%
